Test results published in PubChem BioAssay AID248 (DTP/NCI, 2004).
“And” between values parts separate entries of the source, which are not always exact repeats. Equal values may be shown once. Toxic doses and inconclusive results are not listed.

Tested on: L1210 leukemia ip in BDF1 mice, survival T/C
Test: NCI In Vivo Anticancer Drug Screen. Data for tumor model L1210 Leukemia (intraperitoneal) in B6D2F1 (BDF1) mice
Conditions: endpoint: mean survival time, higher = longer survival
How it was run: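 Tumor cells were implanted, animals were treated, and survival was followed. The result divides the treated measurement by the vehicle-control measurement.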

[1] = dose: 100.0 mg/kg/injection, schedule: Q01DX001 (ip), vehicle: saline
[2] = dose: 100.0 mg/kg/injection, schedule: Q01DX009 (ip), vehicle: saline
[3] = dose: 100.0 mg/kg/injection, schedule: Q04DX003 (ip), vehicle: saline
[4] = dose: 200.0 mg/kg/injection, schedule: Q01DX009 (ip), vehicle: saline
[5] = dose: 200.0 mg/kg/injection, schedule: Q04DX003 (ip), vehicle: saline
[6] = dose: 400.0 mg/kg/injection, schedule: Q01DX009 (ip), vehicle: saline
[7] = dose: 400.0 mg/kg/injection, schedule: Q04DX003 (ip), vehicle: saline
[8] = dose: 25.0 mg/kg/injection, schedule: Q04DX003 (ip), vehicle: saline
[9] = dose: 50.0 mg/kg/injection, schedule: Q04DX003 (ip), vehicle: saline

C=C(C)CSc1ncnc2nc[nH]c12
T/C (dose: 52.0 mg/kg/injection, schedule: Q01DX Z (ip), vehicle: other): 112 % of control | T/C (dose: 80.0 mg/kg/injection, schedule: Q01DX Z (ip), vehicle: other): 112 % of control | T/C (dose: 120.0 mg/kg/injection, schedule: Q01DX Z (ip), vehicle: other): 124 % of control

CCOC(=O)Nc1cc2n[nH]nc2c(NC(c2ccccc2)c2ccccc2)n1
T/C (dose: 100.0 mg/kg/injection, schedule: Q04DX003 (ip), vehicle: saline with Tween-80): 94 % of control | T/C (dose: 200.0 mg/kg/injection, schedule: Q04DX003 (ip), vehicle: saline with Tween-80): 87 % of control | T/C (dose: 400.0 mg/kg/injection, schedule: Q04DX003 (ip), vehicle: saline with Tween-80): 92 % of control

CC(C)(C#N)NC(N)=O
T/C [1]: 101 % of control | T/C [2]: 103 % of control | T/C [3]: 107 % of control | T/C (dose: 200.0 mg/kg/injection, schedule: Q01DX001 (ip), vehicle: saline): 102 % of control | T/C [4]: 102 % of control | T/C [5]: 104 % of control | T/C (dose: 400.0 mg/kg/injection, schedule: Q01DX001 (ip), vehicle: saline): 98 % of control | T/C [6]: 97 % of control | T/C [7]: 102 % of control

CCC[As](=O)(O)CC[As](=O)(O)CCC
T/C (dose: 100.0 mg/kg/injection, schedule: Q01DX001 (ip), vehicle: saline with Tween-80): 104 % of control | T/C (dose: 200.0 mg/kg/injection, schedule: Q01DX001 (ip), vehicle: saline with Tween-80): 112 % of control | T/C (dose: 400.0 mg/kg/injection, schedule: Q01DX001 (ip), vehicle: saline with Tween-80): 96 % of control

O=C1NC(c2ccccc2)(c2ccccc2)C(=O)N1CC1CO1 (centres undefined)
T/C [2]: 100 % of control | T/C [3]: 103 % of control | T/C [4]: 91 % of control | T/C [5]: 102 % of control | T/C [6]: 93 % of control | T/C [7]: 97 % of control

N=C(N)c1ccc(-c2[nH]c3cc(C(=N)N)ccc3c2-c2ccccc2)cc1
T/C (dose: 12.5 mg/kg/injection, schedule: Q04DX003 (ip), vehicle: saline): 100 % of control and 110 % of control | T/C [8]: 100 % of control and 110 % of control | T/C [9]: 108 % of control and 112 % of control

COc1cc([N+](=O)[O-])ccc1NC(=O)Oc1cc(C)ccc1C(C)C
T/C (dose: 100.0 mg/kg/injection, schedule: Q01DX009 (ip), vehicle: Klucel (hydroxypropylcellulose) (HPC)): 103 % of control | T/C (dose: 200.0 mg/kg/injection, schedule: Q01DX009 (ip), vehicle: Klucel (hydroxypropylcellulose) (HPC)): 104 % of control | T/C (dose: 400.0 mg/kg/injection, schedule: Q01DX009 (ip), vehicle: Klucel (hydroxypropylcellulose) (HPC)): 104 % of control

O=[N+]([O-])c1cc(O)cc(F)c1
T/C (dose: 100.0 mg/kg/injection, schedule: Q01DX001 (ip), vehicle: carboxymethylcellulose (CMC)): 100 % of control

C/C(=N/N=C(N)N)c1ccc(NC(=S)Nc2ccc(/C(C)=N/N=C(N)N)cc2)cc1
T/C (dose: 20.0 mg/kg/injection, schedule: Q01DX009 (ip), vehicle: water): 176 % of control

ClC(c1ccccc1)c1ccc(Br)cc1 (centres undefined)
T/C (dose: 100.0 mg/kg/injection, schedule: Q04DX003 (ip), vehicle: Klucel (hydroxypropylcellulose) (HPC)): 108 % of control | T/C (dose: 200.0 mg/kg/injection, schedule: Q04DX003 (ip), vehicle: Klucel (hydroxypropylcellulose) (HPC)): 101 % of control | T/C (dose: 400.0 mg/kg/injection, schedule: Q04DX003 (ip), vehicle: Klucel (hydroxypropylcellulose) (HPC)): 90 % of control

CN(C)CCC(=O)c1ccccc1
T/C (dose: 12.5 mg/kg/injection, schedule: Q01DX009 (ip), vehicle: saline): 101 % of control | T/C (dose: 25.0 mg/kg/injection, schedule: Q01DX009 (ip), vehicle: saline): 101 % of control | T/C [8]: 105 % of control | T/C (dose: 50.0 mg/kg/injection, schedule: Q01DX001 (ip), vehicle: saline): 103 % of control | T/C (dose: 50.0 mg/kg/injection, schedule: Q01DX009 (ip), vehicle: saline): 98 % of control | T/C [9]: 101 % of control | T/C [1]: 103 % of control | T/C [3]: 100 % of control

COc1cc(C=NC(C)(C)CO)cc(OC)c1
T/C (dose: 100.0 mg/kg/injection, schedule: Q01DX001 (ip), vehicle: alcohol): 88 % of control | T/C (dose: 100.0 mg/kg/injection, schedule: Q04DX003 (ip), vehicle: alcohol): 95 % of control | T/C (dose: 200.0 mg/kg/injection, schedule: Q01DX001 (ip), vehicle: alcohol): 96 % of control | T/C (dose: 200.0 mg/kg/injection, schedule: Q04DX003 (ip), vehicle: alcohol): 97 % of control | T/C (dose: 400.0 mg/kg/injection, schedule: Q01DX001 (ip), vehicle: alcohol): 96 % of control | T/C (dose: 400.0 mg/kg/injection, schedule: Q04DX003 (ip), vehicle: alcohol): 100 % of control
